Drawing on patent US20230373939A1 (VERTEX PHARMACEUTICALS INCORPORATED, priority 2020, published 2023), this text covers Emax and EC50 for 36 compounds.

The experiment has as its target T1, F508del in NIH 3T3 cells (Homo sapiens, UniProt P13569, DEL508-508).
T1 construct: expressed in transfected cells
In words: 3T3 assay: membrane potential optical assay for F508del correction. The format is cell-based. An excerpt: 1. Membrane Potential Optical Methods for Assaying F508del Modulation Properties of Compounds
The assay utilizes fluorescent voltage sensing dyes to measure changes in membrane potential using a fluorescent plate reader (e.g., FLTPR III, Molecular Devices, Inc.) as a readout for increase in functional F508del in NIH 3T3 cells. The driving force for the response is the creation of a chloride ion gradient in conjunction with channel activation by a single liquid addition step after the cells have previously been treated with compounds and subsequently loaded with a voltage sensing dye.
2. Identification of Corrector Compounds
To identify correctors of F508del, a single-addition HTS assay format was developed. This HTS assay utilizes fluorescent voltage sensing dyes to measure changes in membrane potential on the FLIPR III as a measurement for increase in gating (conductance) of F508del in F508del NUT 3T3 cells. The F508del NUT 3T3 cell cultures were incubated with the corrector compounds at a range of concentrations for 18-24 hours at 37° C., and subsequently loaded with a redistribution dye. The driving force for the response is a Cl^− ion gradient in conjunction with channel activation with forskolin in a single liquid addition step using a fluorescent plate reader such as FLIPR III.
Bath Solution #1: (in mM) NaCl 160, KCl 4.5, CaCl2 2, MgCl2 1, HEPES 10, pH 7.4 with NaOH.
Chloride-free bath solution: Chloride salts in Bath Solution #1 (above) are substituted with gluconate salts.
NIH3T3 mouse fibroblasts stably expressing F508del were used for optical measurements of membrane potential. The cells were maintained at 37° C. in 5% CO2 and 90% humidity in Dulbecco's modified Eagle's medium supplemented with 2 mM glutamine, 10% fetal bovine serum, 1×NEAA, b-ME, 1×pen/strep, and 25 mM HEPES in 175 cm^2 culture flasks. For all optical assays, the cells were seeded at ˜20,000/well in 384-well Matrigel-coated plates. For the correction assays, the cells were cultured at 37° C. with and without compounds for 16-24 hours.

Setting [1] is: NIH3T3, NIH 3T3 cells, F508del, read-out: 3T3 Max Activity (%).
[2] abbreviates: NIH 3T3 cells, F508del, read-out: 3T3 EC50.
The mark [3] stands for this setting: NIH3T3, read-out: 3T3 Max Activity (%).

Where two headings read alike, the source gives them in different places.

The EC50 is the concentration that produces a half-maximal response.

T1 sequence (P13569 with tags, fused parts or gaps DEL508-508): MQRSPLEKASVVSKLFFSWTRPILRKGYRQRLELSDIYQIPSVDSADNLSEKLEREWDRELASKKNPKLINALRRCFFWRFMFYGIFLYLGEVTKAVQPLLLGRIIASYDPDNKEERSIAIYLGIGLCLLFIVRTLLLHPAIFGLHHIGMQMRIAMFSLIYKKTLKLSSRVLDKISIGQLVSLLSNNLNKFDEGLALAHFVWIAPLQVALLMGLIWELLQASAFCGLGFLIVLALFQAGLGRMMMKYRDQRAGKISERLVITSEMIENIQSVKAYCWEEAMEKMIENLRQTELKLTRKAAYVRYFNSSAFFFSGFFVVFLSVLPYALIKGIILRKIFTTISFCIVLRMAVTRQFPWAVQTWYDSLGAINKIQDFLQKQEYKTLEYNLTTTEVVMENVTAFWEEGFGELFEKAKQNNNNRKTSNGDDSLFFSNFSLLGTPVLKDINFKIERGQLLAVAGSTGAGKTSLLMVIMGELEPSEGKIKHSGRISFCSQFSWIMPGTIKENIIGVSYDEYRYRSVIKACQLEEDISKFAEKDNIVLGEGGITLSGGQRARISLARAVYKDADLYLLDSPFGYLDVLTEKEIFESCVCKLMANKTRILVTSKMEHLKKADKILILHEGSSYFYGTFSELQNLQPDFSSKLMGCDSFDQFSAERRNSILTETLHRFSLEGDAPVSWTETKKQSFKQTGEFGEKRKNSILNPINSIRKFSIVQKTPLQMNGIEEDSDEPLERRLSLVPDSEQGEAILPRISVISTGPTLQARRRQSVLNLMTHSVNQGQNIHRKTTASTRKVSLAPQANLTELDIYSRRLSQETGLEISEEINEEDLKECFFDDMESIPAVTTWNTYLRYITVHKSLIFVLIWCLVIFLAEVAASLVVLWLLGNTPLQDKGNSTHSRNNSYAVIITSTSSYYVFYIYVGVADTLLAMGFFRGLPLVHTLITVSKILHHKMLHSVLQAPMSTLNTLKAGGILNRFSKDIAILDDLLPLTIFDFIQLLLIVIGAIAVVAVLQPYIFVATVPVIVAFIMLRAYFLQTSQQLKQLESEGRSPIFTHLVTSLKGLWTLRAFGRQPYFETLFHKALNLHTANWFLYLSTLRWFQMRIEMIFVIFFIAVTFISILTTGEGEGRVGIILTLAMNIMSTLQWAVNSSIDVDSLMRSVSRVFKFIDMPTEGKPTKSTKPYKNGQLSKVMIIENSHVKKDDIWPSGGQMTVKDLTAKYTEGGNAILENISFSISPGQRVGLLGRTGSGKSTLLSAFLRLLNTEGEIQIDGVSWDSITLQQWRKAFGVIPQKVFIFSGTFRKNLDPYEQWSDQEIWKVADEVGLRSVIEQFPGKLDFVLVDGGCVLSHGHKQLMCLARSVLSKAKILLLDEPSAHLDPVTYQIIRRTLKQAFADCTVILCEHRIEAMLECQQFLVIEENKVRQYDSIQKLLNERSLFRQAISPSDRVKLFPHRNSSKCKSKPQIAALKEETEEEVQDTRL

`Cc1sc(NS(=O)(=O)c2ccccc2)nc1-c1ccccc1` [Compound 23, N-(5-methyl-4-phenyl-thiazol-2-yl)benzenesulfonamide]: the Emax under setting [1] was > 60%. Moreover, the EC50 under setting [2] lay in the range of 3 to 30 µM. Taken in the same sequence, the figures for `Cc1cc(C)c(-n2nc(NS(=O)(=O)c3ccccc3)cc2Br)c(C)c1` [Compound 67, N-[5-bromo-1-(2,4,6-trimethylphenyl)pyrazol-3-yl]benzenesulfonamide] were > 60% and 1 to 3 µM.

For `Cc1cc(NS(=O)(=O)c2ccccc2)nc(-c2cccc(C)c2C)c1` [Compound 154], under setting [1], the Emax was > 60%. Further, the EC50 under setting [2] lay within 3 to 30 µM. Regarding `COc1ccccc1C1(c2cnc(NS(=O)(=O)c3ccccc3)s2)CC1` [Compound 25, N-[5-[1-(2-methoxyphenyl)cyclopropyl]thiazol-2-yl]benzenesulfonamide], the Emax under setting [3] is > 60%. The EC50 under setting [2] lay in the range of 3 to 30 µM. For the compound `Cc1cc(NS(=O)(=O)c2ccccc2)nc(-c2ccc(C)cc2C)c1` [Compound 152], the Emax under setting [1] was > 60%. The EC50 under setting [2] was in the range of 3 to 30 µM. For the compound `Cc1ccc(-c2ccc(NS(=O)(=O)c3ccccc3)nc2-c2ccc(C)cc2)cc1` [Compound 144, N-[5,6-bis(p-tolyl)-2-pyridyl]benzenesulfonamide], under setting [1], the Emax is > 60%. For the same compound, under setting [2], the EC50 was 1 to 3 µM.

With `Cc1cc(C)c(-n2cc(-c3ccccc3)c(NS(=O)(=O)c3ccccc3)n2)c(C)c1` [Compound 96, N-[4-phenyl-1-(2,4,6-trimethylphenyl)pyrazol-3-yl]benzenesulfonamide], the Emax under setting [1] was in the range of 30 to 60%. Besides, under setting [2], the EC50 is < 1 µM. In the same order, the values of `Cc1nc(NS(=O)(=O)c2ccccc2)sc1-c1csc(Nc2ccccn2)n1` [Compound 30, N-[4-methyl-5-[2-(2-pyridylamino)thiazol-4-yl]thiazol-2-yl]benzenesulfonamide] are 30 to 60% and 1 to 3 µM. With `O=S(=O)(Nc1nn(Cc2ccccc2)cc1-c1ccccc1)c1ccccc1` [Compound 107, N-(1-benzyl-4-phenyl-pyrazol-3-yl)benzenesulfonamide], the Emax under setting [1] is < 30%. For the compound `O=S(=O)(Nc1nc(Oc2ccccc2)nc(-c2ccccc2)n1)c1ccccc1` [Compound 125, N-(4-phenoxy-6-phenyl-1,3,5-triazin-2-yl)benzenesulfonamide], the Emax under setting [1] was in the range of 30 to 60%. Besides, the EC50 under setting [2] was < 1 µM. In the same order, the values of `CC(C)=Cc1cn(-c2cccc(Cl)c2)nc1NS(=O)(=O)c1ccccc1` [Compound 85, N-[1-(3-chlorophenyl)-4-(2-methylprop-1-enyl)pyrazol-3-yl]benzenesulfonamide] are 30 to 60% and 3 to 30 µM. On to `Cc1nc(NS(=O)(=O)c2ccccc2)sc1C` [Compound 46, N-(4,5-dimethylthiazol-2-yl)benzenesulfonamide], for which the Emax under setting [1] was < 30%. `CCOC(=O)c1sc(NS(=O)(=O)c2ccccc2)nc1-c1ccccc1` [Compound 24, ethyl 2-(benzenesulfonamido)-4-phenyl-thiazole-5-carboxylate]: the Emax under setting [1] was > 60%. Under setting [2], the EC50 was in the range of 3 to 30 µM. Turning to `Cc1ccc(C)c(-c2nc(NS(=O)(=O)c3ccccc3)sc2C)c1` [Compound 8, N-[4-(2,5-dimethylphenyl)-5-methyl-thiazol-2-yl]benzenesulfonamide], the Emax under setting [3] was > 60%. Besides, the EC50 under setting [2] is < 1 µM.

Consider `Cc1ccc(-c2cc(NS(=O)(=O)c3ccccc3)nn2-c2c(C)cc(C)cc2C)cc1` [Compound 61, N-[5-(p-tolyl)-1-(2,4,6-trimethylphenyl)pyrazol-3-yl]benzenesulfonamide], for which the Emax under setting [1] was 30 to 60%. In addition, under setting [2], the EC50 was < 1 µM.

For `Cc1cc(C)c(-n2nc(NS(=O)(=O)c3ccccc3)cc2C2CCCCC2)c(C)c1` [Compound 64, N-[5-cyclohexyl-1-(2,4,6-trimethylphenyl)pyrazol-3-yl]benzenesulfonamide], the Emax under setting [1] is > 60%. Also, the concentration for a half-maximal effect (EC50) under setting [2] was < 1 µM. In the same order, the values of `Cc1ccc(-c2nc(NS(=O)(=O)c3ccccc3)cc(C)c2C)c(C)c1` [Compound 156] are > 60% and 3 to 30 µM. Regarding `Cc1cccc(-c2cn(-c3cccc(Cl)c3)nc2NS(=O)(=O)c2ccccc2)c1` [Compound 94, N-[1-(3-chlorophenyl)-4-(m-tolyl)pyrazol-3-yl]benzenesulfonamide], under setting [1], the Emax lay in the range of 30 to 60%. The EC50 under setting [2] was 1 to 3 µM.

With `CCCc1oc(NS(=O)(=O)c2ccccc2)nc1-c1ccccc1` [Compound 2, N-(4-phenyl-5-propyl-oxazol-2-yl)benzenesulfonamide], the Emax under setting [3] lay within 30 to 60%. Under setting [2], the EC50 lay in the range of 3 to 30 µM.

Turning to `Cc1cc(C)c(-n2nc(NS(=O)(=O)c3ccccc3)cc2-c2ccccc2Oc2ccccc2)c(C)c1` [Compound 55, N-[5-(2-phenoxyphenyl)-1-(2,4,6-trimethylphenyl)pyrazol-3-yl]benzenesulfonamide], under setting [1], the Emax was > 60%. The 50% effective concentration (EC50) under setting [2] is < 1 µM. `O=C(NCc1ccccc1)c1sc(NS(=O)(=O)c2ccccc2)nc1-c1ccccc1` [Compound 14, 2-(benzenesulfonamido)-N-benzyl-4-phenyl-thiazole-5-carboxamide]: under setting [1], the Emax lay within 30 to 60%. Further, under setting [2], the EC50 lay in the range of 3 to 30 µM. On to `Cc1cc(C)cc(-c2cc(C)cc(NS(=O)(=O)c3ccccc3)n2)c1` [Compound 151], for which the Emax under setting [1] lay within 30 to 60%. Moreover, the EC50 under setting [2] lay in the range of 3 to 30 µM. In the same order, the values of `Cc1cc(C)c(-n2nc(NS(=O)(=O)c3ccccc3)cc2C(C)C)c(C)c1` [Compound 66, N-[5-isopropyl-1-(2,4,6-trimethylphenyl)pyrazol-3-yl]benzenesulfonamide] are 30 to 60% and 1 to 3 µM. In the same order, the values of `Cc1cc(C)c(-n2nc(NS(=O)(=O)c3ccccc3)cc2-c2cccc(Oc3ccccc3)c2)c(C)c1` [Compound 54, N-[5-(3-phenoxyphenyl)-1-(2,4,6-trimethylphenyl)pyrazol-3-yl]benzenesulfonamide] are 30 to 60% and < 1 µM. Consider `CC(C)=Cc1cn(Cc2ccccc2)nc1NS(=O)(=O)c1ccccc1` [Compound 104, N-[1-benzyl-4-(2-methylprop-1-enyl)pyrazol-3-yl]benzenesulfonamide], for which the Emax under setting [1] is < 30%. Consider `Cc1ccc(-c2cc(NS(=O)(=O)c3ccccc3)nc(-c3ccc(C)cc3)c2)cc1` [Compound 143, N-[4,6-bis(p-tolyl)-2-pyridyl]benzenesulfonamide], for which the Emax under setting [1] is > 60%. In addition, under setting [2], the EC50 was 1 to 3 µM. In the same order, the values of `Cc1ccc(-c2nc(NS(=O)(=O)c3ccccc3)cc(C)c2C)cc1C` [Compound 157] are > 60% and 1 to 3 µM. On to `O=S(=O)(Nc1nn(-c2ccccc2)cc1Cc1ccccc1)c1ccccc1` [Compound 74, N-(4-benzyl-1-phenyl-pyrazol-3-yl)benzenesulfonamide], for which the Emax under setting [1] is < 30%. For `Cc1ccccc1-c1cn(Cc2ccccc2)nc1NS(=O)(=O)c1ccccc1` [Compound 115], the Emax under setting [1] was < 30%. For `O=S(=O)(Nc1ncc(-c2ccccc2)nc1-c1ccccc1)c1ccccc1` [Compound 118, N-(3,5-diphenylpyrazin-2-yl)benzenesulfonamide], the Emax under setting [1] is > 60%. Besides, the EC50 under setting [2] was in the range of 1 to 3 µM.

Take `O=S(=O)(Nc1nn(Cc2ccccc2)cc1C1=CCCCC1)c1ccccc1` [Compound 106, N-[1-benzyl-4-(cyclohexen-1-yl)pyrazol-3-yl]benzenesulfonamide]: the Emax under setting [1] was < 30%.

For `Cc1cccc(C)c1-c1cnc(N2CCN(C)CC2)c(NS(=O)(=O)c2ccccc2)n1` [Compound 122, N-[6-(2,6-dimethylphenyl)-3-(4-methylpiperazin-1-yl)pyrazin-2-yl]benzenesulfonamide], the Emax under setting [1] was < 30%. For `O=S(=O)(Nc1nn(-c2cccc(Cl)c2)cc1-c1cccc(Cl)c1)c1ccccc1` [Compound 70, N-[1,4-bis(3-chlorophenyl)pyrazol-3-yl]benzenesulfonamide], the EC50 is < 1 µM. Under setting [3], the Emax fell in the range of 30 to 60%. In the case of `Cc1ccc(-n2nc(NS(=O)(=O)c3ccccc3)cc2C)cc1` [Compound 100, N-[5-methyl-1-(p-tolyl)pyrazol-3-yl]benzenesulfonamide], under setting [1], the Emax is < 30%. Still for that read-out and setting: the same measure for `O=C(O)c1sc(NS(=O)(=O)c2ccccc2)nc1-c1ccccc1` [Compound 42, 4-phenyl-2-(phenylsulfonamido)thiazole-5-carboxylic acid]: 30 to 60%. Turning to `Nc1cccc(S(=O)(=O)Nc2nc(Oc3ccccc3)nc(-c3ccccc3)n2)c1` [Compound 126, 3-amino-N-(4-phenoxy-6-phenyl-1,3,5-triazin-2-yl)benzenesulfonamide], the Emax under setting [1] fell in the range of 30 to 60%. The EC50 under setting [2] fell in the range of 3 to 30 µM.
